Measurements as given in PubChem BioAssay AID1963442 (Molecular Pharmacology Branch, DTP, NCI, 2024).

Tested on: MPNST complex spheroid with HUVEC/MSC, growth, % test/control
Test: Anticancer human tumor MPNST cell line growth inhibition [Asc];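 note: compounds left on spheroids for seven days before reading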
Settings: for IC50: curve of first compound; for viability, T/C: stronger effect = lower value; active = viability on the fitted dose curve at most 10% of control; inactive = the rest
In short: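 Complex solid-tumor spheroids incorporating human endothelial and mesenchymal stem cells received single agents or combinations over half-log dilution ranges anchored to clinical Cmax.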

[1] = second compound 0.00316 µM, first compound 0.0316 µM
[2] = second compound 0.00316 µM, first compound 0.1 µM
[3] = second compound 0.00316 µM, first compound 0.316 µM
[4] = second compound 0.00316 µM, first compound 1 µM
[5] = second compound 0.00316 µM, first compound 3.16 µM
[6] = second compound 0.00316 µM, first compound 10 µM
[7] = second compound 0.01 µM, first compound 0.0316 µM
[8] = second compound 0.01 µM, first compound 0.1 µM
[9] = second compound 0.01 µM, first compound 0.316 µM
[10] = second compound 0.01 µM, first compound 1 µM
[11] = second compound 0.01 µM, first compound 3.16 µM
[12] = second compound 0.01 µM, first compound 10 µM
[13] = second compound 0.0316 µM, first compound 0.0316 µM
[14] = second compound 0.0316 µM, first compound 0.1 µM
[15] = second compound 0.0316 µM, first compound 0.316 µM
[16] = second compound 0.0316 µM, first compound 1 µM
[17] = second compound 0.0316 µM, first compound 3.16 µM
[18] = second compound 0.0316 µM, first compound 10 µM
[19] = second compound 0.1 µM, first compound 0.0316 µM
[20] = second compound 0.1 µM, first compound 0.1 µM
[21] = second compound 0.1 µM, first compound 0.316 µM
[22] = second compound 0.1 µM, first compound 1 µM
[23] = second compound 0.1 µM, first compound 3.16 µM
[24] = second compound 0.1 µM, first compound 10 µM
[25] = second compound 0.316 µM, first compound 0.0316 µM
[26] = second compound 0.316 µM, first compound 0.1 µM
[27] = second compound 0.316 µM, first compound 0.316 µM
[28] = second compound 0.316 µM, first compound 1 µM
[29] = second compound 0.316 µM, first compound 3.16 µM
[30] = second compound 0.316 µM, first compound 10 µM
[31] = second compound 1 µM, first compound 0.0316 µM
[32] = second compound 1 µM, first compound 0.1 µM
[33] = second compound 1 µM, first compound 0.316 µM
[34] = second compound 1 µM, first compound 1 µM
[35] = second compound 1 µM, first compound 3.16 µM
[36] = second compound 1 µM, first compound 10 µM

C#Cc1c(F)ccc2cc(O)cc(-c3ncc4c(N5CC6CCC(C5)N6)nc(OCC56CCCN5CC(F)C6)nc4c3F)c12 (stereo unspecified) + CNC(C)C(=O)NC1CN(S(=O)(=O)c2cccc(S(=O)(=O)N3CCC4CCC(C(=O)NC(c5ccccc5)c5ccccc5)N4C(=O)C(NC(=O)C(C)NC)C3)c2)CCC2CCC(C(=O)NC(c3ccccc3)c3ccccc3)N2C1=O
> 10 µM: IC50 (second compound 0.00316 µM) | IC50 (second compound 0.01 µM) | IC50 (second compound 0.0316 µM) | IC50 (second compound 0.1 µM) | IC50 (second compound 0.316 µM) | IC50 (second compound 1 µM)
inactive: viability, T/C [1] 65.6% | viability, T/C [2] 43.9% | viability, T/C [3] 57.7% | viability, T/C [4] 78.2% | viability, T/C [5] 75.3% | viability, T/C [6] 53% | viability, T/C [7] 96% | viability, T/C [8] 99.5% | viability, T/C [9] 60.1% | viability, T/C [10] 63.5% | viability, T/C [11] 73.1% | viability, T/C [12] 46.2% | viability, T/C [13] 103% | viability, T/C [14] 66.8% | viability, T/C [15] 69% | viability, T/C [16] 70.5% | viability, T/C [17] 52.1% | viability, T/C [18] 56.6% | viability, T/C [19] 56% | viability, T/C [20] 67.8% | viability, T/C [21] 78.2% | viability, T/C [22] 64.1% | viability, T/C [23] 63.2% | viability, T/C [24] 53.1% | viability, T/C [25] 73.2% | viability, T/C [26] 75.1% | viability, T/C [27] 70% | viability, T/C [28] 58.3% | viability, T/C [29] 60.3% | viability, T/C [30] 67.3% | viability, T/C [31] 76% | viability, T/C [32] 79.5% | viability, T/C [33] 69.4% | viability, T/C [34] 82.5% | viability, T/C [35] 62.2% | viability, T/C [36] 84.3%

C=C(F)C(=O)N1CCN(c2nc(OCC3CCCN3C)nc3c2CCN(c2cccc4cccc(Cl)c24)C3)CC1CC#N (stereo unspecified) + CNC(C)C(=O)NC1CN(S(=O)(=O)c2cccc(S(=O)(=O)N3CCC4CCC(C(=O)NC(c5ccccc5)c5ccccc5)N4C(=O)C(NC(=O)C(C)NC)C3)c2)CCC2CCC(C(=O)NC(c3ccccc3)c3ccccc3)N2C1=O
3.75 µM: IC50 (second compound 0.00316 µM)
active: viability, T/C [6] 1.84% | viability, T/C [12] 0.9% | viability, T/C [18] 1% | viability, T/C [24] 1.36% | viability, T/C [30] 1.32% | viability, T/C [36] 0.71%
4.2 µM: IC50 (second compound 0.01 µM)
3.55 µM: IC50 (second compound 0.1 µM)
3.64 µM: IC50 (second compound 1 µM)
3.43 µM: IC50 (second compound 0.316 µM)
1.81 µM: IC50 (second compound 0.0316 µM)
inactive: viability, T/C [1] 77% | viability, T/C [2] 75.2% | viability, T/C [3] 65.9% | viability, T/C [4] 89.8% | viability, T/C [5] 58.3% | viability, T/C [7] 85.9% | viability, T/C [8] 75.9% | viability, T/C [9] 97.4% | viability, T/C [10] 85% | viability, T/C [11] 66.2% | viability, T/C [13] 99.4% | viability, T/C [14] 76.5% | viability, T/C [15] 81.4% | viability, T/C [16] 54.6% | viability, T/C [17] 46.9% | viability, T/C [19] 79.3% | viability, T/C [20] 58.5% | viability, T/C [21] 88.4% | viability, T/C [22] 73.5% | viability, T/C [23] 55.6% | viability, T/C [25] 103% | viability, T/C [26] 52.8% | viability, T/C [27] 61% | viability, T/C [28] 69.5% | viability, T/C [29] 57% | viability, T/C [31] 91.9% | viability, T/C [32] 60.4% | viability, T/C [33] 51% | viability, T/C [34] 77.1% | viability, T/C [35] 56.8%

CCN1C(C(=O)NC23CCC(C(=O)O)(CC2)CC3)C(c2cccc(Cl)c2F)C2(C(=O)Nc3cc(Cl)ccc32)C12CCCCC2 (stereo unspecified) + CNC(C)C(=O)NC1CN(S(=O)(=O)c2cccc(S(=O)(=O)N3CCC4CCC(C(=O)NC(c5ccccc5)c5ccccc5)N4C(=O)C(NC(=O)C(C)NC)C3)c2)CCC2CCC(C(=O)NC(c3ccccc3)c3ccccc3)N2C1=O
inactive: viability, T/C (second compound 0.00316 µM, first compound 0.00949 µM) 98.4% | viability, T/C (second compound 0.00316 µM, first compound 0.03 µM) 64.1% | viability, T/C (second compound 0.00316 µM, first compound 0.0949 µM) 79.5% | viability, T/C (second compound 0.00316 µM, first compound 0.3 µM) 85.6% | viability, T/C (second compound 0.00316 µM, first compound 0.949 µM) 74.1% | viability, T/C (second compound 0.00316 µM, first compound 3 µM) 76% | viability, T/C (second compound 0.01 µM, first compound 0.00949 µM) 100% | viability, T/C (second compound 0.01 µM, first compound 0.03 µM) 106% | viability, T/C (second compound 0.01 µM, first compound 0.0949 µM) 86.3% | viability, T/C (second compound 0.01 µM, first compound 0.3 µM) 64.1% | viability, T/C (second compound 0.01 µM, first compound 0.949 µM) 78.9% | viability, T/C (second compound 0.01 µM, first compound 3 µM) 63.4% | viability, T/C (second compound 0.0316 µM, first compound 0.00949 µM) 87.2% | viability, T/C (second compound 0.0316 µM, first compound 0.03 µM) 66.3% | viability, T/C (second compound 0.0316 µM, first compound 0.0949 µM) 69.3% | viability, T/C (second compound 0.0316 µM, first compound 0.3 µM) 70.5% | viability, T/C (second compound 0.0316 µM, first compound 0.949 µM) 68.8% | viability, T/C (second compound 0.0316 µM, first compound 3 µM) 68.1% | viability, T/C (second compound 0.1 µM, first compound 0.00949 µM) 92.9% | viability, T/C (second compound 0.1 µM, first compound 0.03 µM) 77.7% | viability, T/C (second compound 0.1 µM, first compound 0.0949 µM) 70.3% | viability, T/C (second compound 0.1 µM, first compound 0.3 µM) 80.6% | viability, T/C (second compound 0.1 µM, first compound 0.949 µM) 58.5% | viability, T/C (second compound 0.1 µM, first compound 3 µM) 64.6% | viability, T/C (second compound 0.316 µM, first compound 0.00949 µM) 68.8% | viability, T/C (second compound 0.316 µM, first compound 0.03 µM) 71.5% | viability, T/C (second compound 0.316 µM, first compound 0.0949 µM) 86% | viability, T/C (second compound 0.316 µM, first compound 0.3 µM) 68.2% | viability, T/C (second compound 0.316 µM, first compound 0.949 µM) 68.1% | viability, T/C (second compound 0.316 µM, first compound 3 µM) 62.1% | viability, T/C (second compound 1 µM, first compound 0.00949 µM) 97% | viability, T/C (second compound 1 µM, first compound 0.03 µM) 68.2% | viability, T/C (second compound 1 µM, first compound 0.0949 µM) 87.7% | viability, T/C (second compound 1 µM, first compound 0.3 µM) 65.3% | viability, T/C (second compound 1 µM, first compound 0.949 µM) 65.6% | viability, T/C (second compound 1 µM, first compound 3 µM) 70.2%
> 3 µM: IC50 (second compound 0.00316 µM) | IC50 (second compound 0.01 µM) | IC50 (second compound 0.0316 µM) | IC50 (second compound 0.1 µM) | IC50 (second compound 0.316 µM) | IC50 (second compound 1 µM)
